# Laboratory results reported in patent US20060111305A1, “Metabolites of certain [1,4]diazepino[6,7,1-ij]quinoline derivatives and methods of preparation and use thereof” (Wyeth, priority 2004, published 2006).
# Like-named read-outs stand apart in the source and are kept apart here.
# Key:
# [1] = Dog plasma metabolite profiles after single 15 mg/kg oral capsule of [14C]DCDQ; type: in vivo, beagle dogs
# Experimental: (§1) For plasma profiles, a TopCount NXT radiometric microplate reader (Perkin Elmer) was used to analyze the radioactivity in collected HPLC fractions. The limit of detection by TopCount was about 1 ng equivalent/mL. A Flo-One β Model A525 radioactivity detector (Perkin Elmer) with a 250 μL LQTR flow cell was used to acquire data for urine and fecal samples. The flow rate of Ultima Flow M scintillation fluid was 1 mL/min, providing a mixing ratio of scintillation cocktail to mobile phase of 5:1. The limits of detection by Flo-One detector were about 200 ng equivalents/mL for urine and 12 ng equivalents/g for feces.
# Plasma samples were analyzed for metabolite profiles by HPLC. Aliquots of plasma were mixed with two volumes of cold methanol containing 0.1% trifluoroacetic acid (TFA), placed on ice for about 2 minutes and then centrifuged. The supernatant fluid was transferred to a clean tube and evaporated at 22° C. under nitrogen in a Zymark TurboVap LV (Caliper Life Sciences, Hopkinton, Mass.) to a volume of about 0.3 mL. The residue was centrifuged, the supernatant volume measured and extraction efficiency determined by analysis of duplicate 20 μL aliquots for radioactivity. A 200 μL aliquot of the supernatant was injected onto the HPLC column and the effluent was collected at 20 second intervals into 96-well Lumaplates (Perkin Elmer). The plates were dried overnight in an oven at 40° C. and analyzed by a TopCount. Plasma extracts were also analyzed by LC/MS.
# (§2) A Waters model 2690 HPLC system (Waters Corp., Milford, Mass.) with a built-in autosampler was used for analysis. Separations were accomplished on a Phenomenex Luna C18(2) column (150×2.0 mm, 5 μm) (Phenomenex, Torrance, Calif.). The sample chamber of the autosampler was maintained at 4° C., while the column was at ambient temperature of about 20° C. A variable wavelength UV detector set to monitor 250 nm and a Flo-One β Model A525 radioactivity detector were used for data acquisition. The HPLC mobile phase consisted of 10 mM ammonium acetate, pH 4.5 (A) and acetonitrile (B), and was delivered at 0.2 mL/min. Chromatographic condition A was used for dose analysis, while condition B was used for analysis of urine and plasma, brain and fecal extracts.
# [2] = Dog urinary excretion and metabolite profiles after oral capsule of [14C]DCDQ; type: in vivo, beagle dogs
# Experimental: Blood samples were collected from the jugular vein at 2, 4, 8, 24 and 48 hour after dose administration into tubes containing potassium EDTA as the anticoagulant and then placed on ice. Aliquots of 50 μL were removed for combustion and determination of radioactivity content. Plasma was immediately obtained from the remaining blood by centrifugation at 4° C. Urine samples were collected into tubes on dry ice at intervals of 0-8, 8-24 and 24-48 hour post-dose. Fecal samples were collected at intervals of 0-8, 8-24 and 24-48 hour post-dose at room temperature, and were homogenized. The biological specimens were stored at approximately −70° C. until analysis.
# as §1
# Urine was analyzed for radioactivity concentration and analyzed by HPLC with radioactivity flow detection for metabolite profiles by direct injection to the HPLC column. LC/MS analyses for metabolite identification were also carried out with urine samples.
# as §2
# [3] = Metabolites of DCDQ identified in dogs by LC/MS analysis (Table 26); type: in vivo, beagle dogs; details: P = plasma, U = urine, B = brain, F = feces
# From the text: An Agilent Model 1100 HPLC system (Agilent Technologies, Palo Alto, Calif.) including an autosampler and diode array UV detector was used for LC/MS analysis. The UV detector was set to monitor 200 to 400 nm. For selected LC/MS analysis, radiochromatograms were acquired using a β-Ram model 3 radioactivity flow detector (IN/US Systems Inc., Tampa, Fla.) equipped with a solid scintillant flow cell. LC conditions were the same as the condition B described above.
# The mass spectrometer used for metabolite characterization was a Micromass Q-TOF-2 quadrupole time-of-flight hybrid mass spectrometer (Waters). The mass spectrometer was equipped with an electrospray ionization (ESI) interface and operated in the positive ionization mode. Collision energy settings of 5 and 30 eV were used for full MS and MS/MS scans, respectively. Settings for the mass spectrometer are listed below.
# [4] = Rat urinary excretion and metabolite profiles after single oral 5 mg/kg [14C]DCDQ; type: in vivo, Sprague-Dawley rats; details: for Chromatographic distribution of radioactivity in male rat urine / Percentage of dose for urinary metabolites in rats: oral 5 mg/kg, mean n = 3; for radioactive dose recovered in urine: male rats
# Experimental: At sacrifice, blood samples were collected by cardiac puncture into tubes containing EDTA as the anticoagulant and placing them on ice. Aliquots of 50 μL were removed for combustion and determination of radioactivity content. Plasma was immediately obtained from the remaining blood by centrifugation at 4° C. Brains were excised after perfusion with 50 mL of chilled sterile saline. Urine samples were collected on dry ice at intervals of 0-8 and 8-24 hour post-dosing. Feces were collected at intervals of 0-8 and 8-24 hr post-dosing at room temperature and were homogenized as described previously. The biological specimens and aliquots of the dosing solution at pre- and post-dose were stored at approximately −70° C. until analyzed.
# Plasma (20 μL) and urine (50 μL) aliquots were analyzed for radioactivity concentrations. Radioactivity determinations of dose, plasma and urine were made with a Tri-Carb Model 3100 TR/LL liquid scintillation counter (LSC) (Perkin Elmer) using 10 mL of Ultima Gold as the scintillation fluid.
# Urine was analyzed for radioactivity concentration as and analyzed for metabolite profiles by direct injection onto the HPLC column. LC/MS analyses for metabolite identification were also carried out with urine samples.
# as §2, with “radioactivity detector described above were used” for “radioactivity detector were used”, “(A) and methanol (B), and” for “(A) and acetonitrile (B), and”
# [5] = male, beagle, dog, plasma, oral, 15 mg/kg, 2 hr, dog 1, read-out: Estimated plasma concentration in dogs
# [6] = male, beagle, dog, plasma, oral, 15 mg/kg, 2 hr, dog 2, read-out: Estimated plasma concentration in dogs
# [7] = male, beagle, dog, plasma, oral, 15 mg/kg, 4 hr, dog 1, read-out: Estimated plasma concentration in dogs
# [8] = male, beagle, dog, plasma, oral, 15 mg/kg, 4 hr, dog 2, read-out: Estimated plasma concentration in dogs
# [9] = male, beagle, dog, plasma, oral, 15 mg/kg, 8 hr, dog 1, read-out: Estimated plasma concentration in dogs
# [10] = 0-8 hr, dog no. not printed (dog 1 by footnote a)
# [11] = male, beagle, dog, plasma, oral, 15 mg/kg, 24 hr, dog 1, read-out: Estimated plasma concentration in dogs
Structure (SMILES),"Chromatographic distribution of radioactivity in dog plasma ([1]; 2 hr, dog 1) [%]","Chromatographic distribution of radioactivity in dog plasma ([1]; 2 hr, dog 2) [%]","Chromatographic distribution of radioactivity in dog plasma ([1]; 4 hr, dog 1) [%]","Chromatographic distribution of radioactivity in dog plasma ([1]; 4 hr, dog 2) [%]","Chromatographic distribution of radioactivity in dog plasma ([1]; 8 hr, dog 1) [%]","Estimated plasma concentration in dogs ([1]; 8 hr, dog 2)","Estimated plasma concentration in dogs ([1]; 8 hr, dog 3)","Estimated plasma concentration in dogs ([1]; 24 hr, dog 2)","Estimated plasma concentration in dogs ([1]; 24 hr, dog 3)","Estimated plasma concentration in dogs ([1]; 48 hr, dog 1)","Estimated plasma concentration in dogs ([1]; 48 hr, dog 3)","concentration at 2 h [1, 5] [ng/mL]","concentration at 2 h [1, 6] [ng/mL]","concentration at 4 h [1, 7] [ng/mL]","concentration at 4 h [1, 8] [ng/mL]","concentration at 8 h [1, 9] [ng/mL]","Chromatographic distribution of radioactivity in dog urine [2, 10] [%]","Chromatographic distribution of radioactivity in dog urine ([2]; 24-48 hr, dog 1) [%]","Chromatographic distribution of radioactivity in dog urine ([2]; 24-48 hr, dog 2) [%]","Chromatographic distribution of radioactivity in dog plasma ([1]; 24 hr, dog 1) [%]",other results
"[O-][N+]12CCN=Cc3cccc(c31)[C@H]1CCC[C@H]1C2 (stereo partly shown) [Metabolite M5, DCDQ imine N-oxide]",12,2.9,6.6,5.3,4.0,BQL,BQL,BQL,BQL,BQL,BQL,43.1,36.4,33.1,86.6,21.7,5.9,8.5,4.0,–,"Estimated plasma concentration in dogs ([1]; 24 hr, dog 1): BQL; Chromatographic distribution of radioactivity in dog plasma ([1]; 48 hr, dog 2): 2.8%; concentration at 48 h ([1]; male, beagle, dog, plasma, oral, 15 mg/kg, 48 hr, dog 2, read-out: Estimated plasma concentration in dogs): 18.9 ng/mL"
"O=C(O)[C@H]1O[C@@H](OC(=O)N2CCN3C[C@@H]4CCC[C@@H]4c4cccc(c43)C2)[C@H](O)[C@@H](O)[C@@H]1O [Metabolite M6, carbamoyl glucuronide of DCDQ]",–,19,–,13,7.0,BQL,BQL,–,BQL,BQL,BQL,–,239,–,215,37.9,13,5.8,3.5,17,"Estimated plasma concentration in dogs ([1]; 2 hr, dog 1): BQL; Estimated plasma concentration in dogs ([1]; 4 hr, dog 1): BQL; Chromatographic distribution of radioactivity in dog plasma ([1]; 24 hr, dog 2): 5.6%; Estimated plasma concentration in dogs ([1]; 48 hr, dog 2): BQL; concentration at 24 h [1, 11]: 258 ng/mL; concentration at 24 h ([1]; male, beagle, dog, plasma, oral, 15 mg/kg, 24 hr, dog 2, read-out: Estimated plasma concentration in dogs): 62.1 ng/mL; Matrix [3]: P, U; Chromatographic distribution of radioactivity in dog urine ([2]; 8-24 hr, Mean): 5.8%; Chromatographic distribution of radioactivity in dog urine ([2]; 8-24 hr, dog 1): 6.1%; Chromatographic distribution of radioactivity in dog urine ([2]; 8-24 hr, dog 2): 7.6%; Chromatographic distribution of radioactivity in dog urine ([2]; 8-24 hr, dog 3): 3.6%; Chromatographic distribution of radioactivity in dog urine ([2]; 24-48 hr, Mean): 4.7%; Chromatographic distribution of radioactivity in dog urine ([2]; 24-48 hr, dog 3): 4.3%; Chromatographic distribution of radioactivity in dog urine ([2]; 24-48 hr, dog 4): 5.9%"
"c1cc2c3c(c1)[C@H]1CCC[C@H]1CN3CCNC2 [DCDQ, (9aR,12aS)-4,5,6,7,9,9a,10,11,12,12a-decahydro-cyclopenta[c][1,4]diazepine[6,7,1-ij]quinoline, reference compound]",11,1.9,11,21,2.7,BQL,BQL,BQL,–,BQL,BQL,39.6,23.2,52.5,345,14.5,–,3.8,–,2.6,"Chromatographic distribution of radioactivity in dog plasma ([1]; 24 hr, dog 3): 2.3%; Estimated plasma concentration in dogs ([1]; 48 hr, dog 2): BQL; concentration at 24 h [1, 11]: 39.6 ng/mL; concentration at 24 h ([1]; male, beagle, dog, plasma, oral, 15 mg/kg, 24 hr, dog 3, read-out: Estimated plasma concentration in dogs): 43.8 ng/mL; Chromatographic distribution of radioactivity in male rat urine ([4]; 0-8 hr): 1.29%; Percentage of dose for urinary metabolites in rats ([4]; 0-8 hr): 0.42%; Chromatographic distribution of radioactivity in male rat urine ([4]; 8-24 hr): 1.46%; Percentage of dose for urinary metabolites in rats ([4]; 8-24 hr): 0.51%; Matrix [3]: P, U, F; Chromatographic distribution of radioactivity in dog urine ([2]; 8-24 hr, dog 1): 9.5%; Chromatographic distribution of radioactivity in dog urine ([2]; 8-24 hr, dog 3): 11%; Chromatographic distribution of radioactivity in dog urine ([2]; 24-48 hr, Mean): 3.4%; Chromatographic distribution of radioactivity in dog urine ([2]; 24-48 hr, dog 3): 3.0%; Chromatographic distribution of radioactivity in dog urine ([2]; 24-48 hr, dog 4): 6.9%"
c1cc2c3c(c1)[C@H]1CCC[C@H]1CN3CCNC2 [[^14C]DCDQ],–,–,–,–,–,–,–,–,–,–,–,–,–,–,–,–,–,–,–,–,radioactive dose recovered in urine ([4]; 0-8 hour period): 32.5%; radioactive dose recovered in urine ([4]; 8-24 hour period): 34.2%; radioactive dose recovered in urine ([4]; first 24 hours post-dose): 66.7±5.0%
